Experiment [1] has as its target FGFR1 (Homo sapiens, UniProt P11362). Nature of the experiment: SelectScreen kinase activity profiling, FGFR1. Also noted: concentration or dose not given beside the values. Conditions: for Mean % Inhibition: mean of two independent trials. Format: biochemical. The source says: (§1) To characterize the RTK inhibitory activity of the antiangiogenic SMs described herein, 36 compounds were chosen and screened using Invitrogen's SelectScreen® kinase activity profiling service (described on-line at tools.invitrogen.com/content.cfm?pageid=10413#selection). VEGFR1 and FGFR2 RTK inhibitory activities were studied. […] Overall, a small minority of the SMs tested had any substantial kinase inhibitory activity. This observation supports a mechanism of antiangiogenic action other than RTK inhibition for most of the SMs described herein.

Experiment [2] addresses KDR(VEGFR2) (Homo sapiens, UniProt P35968). Briefly: SelectScreen kinase activity profiling, KDR(VEGFR2). The experiment is classed as biochemical. Also noted: % Inhibition / Mean % Inhibition: concentration or dose not given beside the values. Conditions: KDR(VEGFR2); for Mean % Inhibition: mean of two independent trials.
Source text: as §1

Setting [3] is: first of two independent trials.
The mark [4] stands for this setting: second of two independent trials.

Structures are written as SMILES.

Chain of KDR(VEGFR2) (P35968 20-1356): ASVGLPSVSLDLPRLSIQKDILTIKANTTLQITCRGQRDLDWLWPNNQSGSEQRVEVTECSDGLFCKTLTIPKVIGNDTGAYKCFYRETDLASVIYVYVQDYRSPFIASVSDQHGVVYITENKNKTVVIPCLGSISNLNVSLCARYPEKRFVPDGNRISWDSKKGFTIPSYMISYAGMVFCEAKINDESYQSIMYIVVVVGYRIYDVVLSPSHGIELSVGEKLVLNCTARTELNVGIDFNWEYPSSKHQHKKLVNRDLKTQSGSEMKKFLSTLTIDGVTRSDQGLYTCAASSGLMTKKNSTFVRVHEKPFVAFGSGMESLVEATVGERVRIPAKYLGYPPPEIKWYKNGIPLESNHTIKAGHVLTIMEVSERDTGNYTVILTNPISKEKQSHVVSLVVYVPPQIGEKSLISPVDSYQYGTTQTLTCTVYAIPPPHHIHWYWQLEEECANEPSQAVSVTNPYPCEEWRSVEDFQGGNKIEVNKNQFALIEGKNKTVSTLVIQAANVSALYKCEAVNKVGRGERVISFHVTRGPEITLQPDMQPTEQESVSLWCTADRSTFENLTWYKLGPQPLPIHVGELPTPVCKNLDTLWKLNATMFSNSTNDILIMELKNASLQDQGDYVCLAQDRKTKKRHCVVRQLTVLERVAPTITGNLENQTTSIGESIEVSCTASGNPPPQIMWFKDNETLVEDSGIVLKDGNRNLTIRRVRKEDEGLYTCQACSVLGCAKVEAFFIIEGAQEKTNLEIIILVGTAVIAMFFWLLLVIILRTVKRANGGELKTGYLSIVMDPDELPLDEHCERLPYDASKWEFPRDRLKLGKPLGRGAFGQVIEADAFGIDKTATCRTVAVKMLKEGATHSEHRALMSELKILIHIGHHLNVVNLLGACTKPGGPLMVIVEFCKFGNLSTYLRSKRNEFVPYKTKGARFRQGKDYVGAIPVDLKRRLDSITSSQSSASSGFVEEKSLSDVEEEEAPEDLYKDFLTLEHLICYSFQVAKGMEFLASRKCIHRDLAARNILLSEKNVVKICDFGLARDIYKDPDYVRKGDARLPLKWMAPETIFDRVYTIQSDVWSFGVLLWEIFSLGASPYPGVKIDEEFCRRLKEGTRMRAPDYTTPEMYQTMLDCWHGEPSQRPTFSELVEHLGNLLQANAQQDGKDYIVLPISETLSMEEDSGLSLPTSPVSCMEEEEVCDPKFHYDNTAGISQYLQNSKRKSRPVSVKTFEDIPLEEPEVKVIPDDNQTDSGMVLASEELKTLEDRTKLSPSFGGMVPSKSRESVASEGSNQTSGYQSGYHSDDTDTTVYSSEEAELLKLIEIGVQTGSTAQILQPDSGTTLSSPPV
Chain of FGFR1 (P11362 398-822 limits assumed): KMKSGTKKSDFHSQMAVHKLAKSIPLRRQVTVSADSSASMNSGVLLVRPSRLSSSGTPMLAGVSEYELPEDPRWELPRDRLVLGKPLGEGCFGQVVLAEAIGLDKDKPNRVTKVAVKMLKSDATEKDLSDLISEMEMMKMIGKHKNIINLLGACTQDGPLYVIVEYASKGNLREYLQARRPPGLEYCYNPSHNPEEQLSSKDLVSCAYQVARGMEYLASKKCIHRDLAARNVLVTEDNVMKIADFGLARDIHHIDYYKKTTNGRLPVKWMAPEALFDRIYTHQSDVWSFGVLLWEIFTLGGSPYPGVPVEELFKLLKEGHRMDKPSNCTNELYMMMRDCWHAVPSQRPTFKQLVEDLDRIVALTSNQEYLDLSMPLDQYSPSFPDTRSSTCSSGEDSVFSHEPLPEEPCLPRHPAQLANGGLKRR

By % Inhibition is commonly meant the change of the read-out against control, counted positive when it falls. For `Cc1cc(O)c(-c2cc(O)c(C)cc2O)cc1O` [compound 2805], the “% Inhibition” value in experiment [1] (setting [3]) worked out at 1%; in experiment [1] (setting [4]), 10%; in experiment [2] (setting [3]) it was 42%; in experiment [2] (setting [4]), 52%. Moreover, the “Mean % Inhibition” value in experiment [1] was 6%; in experiment [2] it was 47%.
In the case of `CC1(C)C2CCC1(C)C(OC(=O)CSC#N)C2` (stereo not drawn) [compound 3535], the “% Inhibition” value in experiment [1] (setting [3]) is −1%; in experiment [1] (setting [4]), −3%; in experiment [2] (setting [3]), 10%; in experiment [2] (setting [4]), 5%. Besides, the “Mean % Inhibition” value in experiment [1] is recorded as −2%; in experiment [2] it was 8%.
For `CC(C)(C)c1cc(O)ccc1O` [compound 4972], the “% Inhibition” value is 3% in experiment [1] (setting [3]), −7% in experiment [1] (setting [4]), 2% in experiment [2] (setting [3]) and 11% in experiment [2] (setting [4]). The “Mean % Inhibition” value in experiment [1] is given as −2%; in experiment [2] it was 7%.
`OC(c1cc(-c2ccccc2)nc2c1ccc1ccccc12)C1CCCCN1` (stereo not drawn) [compound 13480]: the “% Inhibition” value in experiment [1] (setting [3]) amounted to 5%; in experiment [1] (setting [4]) it was 10%; in experiment [2] (setting [3]), 4%; in experiment [2] (setting [4]), 2%. Moreover, the “Mean % Inhibition” value in experiment [1] is recorded as 8%; in experiment [2], 3%.
`Cc1ccc(S(=O)(=O)OCC(=O)O)cc1` [compound 16555]: the “% Inhibition” value in experiment [1] (setting [3]) turned out to be 3%; in experiment [1] (setting [4]), 3%; in experiment [2] (setting [3]), 11%; in experiment [2] (setting [4]) it was 11%. For the same molecule, the “Mean % Inhibition” value in experiment [1] came to 3%; in experiment [2] it was 11%.
As to `O=C(c1no[n+]([O-])c1C(=O)c1csc2ccccc12)c1csc2ccccc12` [compound 18877], the “% Inhibition” value in experiment [1] (setting [3]) was −3%; in experiment [1] (setting [4]), 0%; in experiment [2] (setting [3]), 10%; in experiment [2] (setting [4]), 4%. Besides, the “Mean % Inhibition” value is −2% in experiment [1] and 7% in experiment [2].
For the molecule `CS(=O)(=O)c1ccc(/C=N/NC(N)=S)cc1` [compound 27063], the “% Inhibition” value in experiment [1] (setting [3]) is listed as −3%; in experiment [1] (setting [4]), −2%; in experiment [2] (setting [3]), 12%; in experiment [2] (setting [4]) it was 11%. Further, the results for the “Mean % Inhibition” value in experiment [1] and in experiment [2] were −3% and 11%, respectively.
On to `NC(=O)SCC(=O)Nc1ccc2ncccc2c1` [compound 36738], for which the “% Inhibition” value in experiment [1] (setting [3]) is recorded as −1%; in experiment [1] (setting [4]), 4%; in experiment [2] (setting [3]), 16%; in experiment [2] (setting [4]) it was 17%. Further, the “Mean % Inhibition” value in experiment [1] is 1%; in experiment [2], 16%.
For `COc1ccc(NCc2c(O)ccc3ccccc23)cc1` [compound 47924], the “% Inhibition” value in experiment [1] (setting [3]) came out at 1%; in experiment [1] (setting [4]) it was 3%; in experiment [2] (setting [3]) it was 21%; in experiment [2] (setting [4]), 18%. Moreover, the “Mean % Inhibition” value came out at 2% in experiment [1] and 19% in experiment [2].
`O=[As](O)(O)c1ccc(Cc2ccc([As](=O)(O)O)cc2)cc1` [compound 48300]: the “% Inhibition” value in experiment [1] (setting [3]) was 8%; in experiment [1] (setting [4]), 10%; in experiment [2] (setting [3]), 76%; in experiment [2] (setting [4]), 78%. Also, the “Mean % Inhibition” value was 9% in experiment [1] and 77% in experiment [2].
Consider `CC(C)(C)c1c2c(c(C(C)(C)C)c3c1OCN(Cc1ccccc1)C3)OCN(Cc1ccccc1)C2` [compound 48458], for which the “% Inhibition” value was found to be 5% in experiment [1] (setting [3]), 8% in experiment [1] (setting [4]), 13% in experiment [2] (setting [3]) and 9% in experiment [2] (setting [4]). For the same molecule, the “Mean % Inhibition” value is 6% in experiment [1] and 11% in experiment [2].
Consider `O=C(O)C1CCCN1Cc1ccc2c(c1)OCO2` (stereo not drawn) [compound 108895], for which the “% Inhibition” value turned out to be 4% in experiment [1] (setting [3]), 4% in experiment [1] (setting [4]), 5% in experiment [2] (setting [3]) and 6% in experiment [2] (setting [4]). For the same molecule, the “Mean % Inhibition” value in experiment [1] is listed as 4%; in experiment [2], 6%.
For `CC1=C(Br)C(=O)C(C)=C(Br)C1=O.Cc1c(O)c(Br)c(C)c(O)c1Br` [compound 112200], the “% Inhibition” value in experiment [1] (setting [3]) is 9%; in experiment [1] (setting [4]) it was 5%; in experiment [2] (setting [3]), 100%; in experiment [2] (setting [4]), 99%. Moreover, the results for the “Mean % Inhibition” value in experiment [1] and in experiment [2] were 7% and 99%, respectively.
Consider `O=C(O)c1c(Br)c(Br)c(Br)c(Br)c1C1c2ccc(O)cc2Oc2cc(O)ccc21` [compound 119889], for which the “% Inhibition” value in experiment [1] (setting [3]) was determined as 96%; in experiment [1] (setting [4]), 95%; in experiment [2] (setting [3]), 103%; in experiment [2] (setting [4]) it was 104%. In addition, the “Mean % Inhibition” value in experiment [1] is recorded as 96%; in experiment [2], 103%.
For the molecule `C1=Cc2ccccc2C1.C=C(C)c1ccccc1.[N-]=[N+]=Nc1ccccc1` [compound 122351], the “% Inhibition” value in experiment [1] (setting [3]) is on record as −1%; in experiment [1] (setting [4]) it was 4%; in experiment [2] (setting [3]) it was 4%; in experiment [2] (setting [4]) it was 4%. Further, the “Mean % Inhibition” value in experiment [1] stood at 1%; in experiment [2], 4%.
For `O=[N+]([O-])c1ccc(S(=O)(=O)Cc2ccccc2)c([N+](=O)[O-])c1` [compound 122657], the “% Inhibition” value in experiment [1] (setting [3]) is listed as −3%; in experiment [1] (setting [4]), −3%; in experiment [2] (setting [3]) it was 14%; in experiment [2] (setting [4]), 14%. Moreover, the “Mean % Inhibition” value in experiment [1] was −3%; in experiment [2] it was 14%.
Turning to `CC(C)(C)c1cc(C#N)cc(Br)c1OP(=O)(Oc1c(Br)cc(C#N)cc1C(C)(C)C)c1ccccc1` [compound 203328], the “% Inhibition” value was 4% in experiment [1] (setting [3]), 4% in experiment [1] (setting [4]), 9% in experiment [2] (setting [3]) and 7% in experiment [2] (setting [4]). In addition, the “Mean % Inhibition” value in experiment [1] is recorded as 4%; in experiment [2] it was 8%.
As for `S=C1SCN(C2CCCCCCCCCCC2)CN1C1CCCCCCCCCCC1` [compound 209910], the “% Inhibition” value in experiment [1] (setting [3]) worked out at 2%; in experiment [1] (setting [4]), 5%; in experiment [2] (setting [3]) it was 9%; in experiment [2] (setting [4]) it was 10%. The “Mean % Inhibition” value in experiment [1] is 4%; in experiment [2] it was 10%.
In the case of `COc1ccc(CC2C(=O)NC(C)C(=O)N(C)C3C(=O)N(C)C(Cc4ccc(O)c(c4)Oc4ccc(cc4)C3O)C(=O)NC(C)C(=O)NC(C)C(=O)N2C)cc1` (stereo not drawn) [compound 259968], the “% Inhibition” value worked out at 5% in experiment [1] (setting [3]), 2% in experiment [1] (setting [4]), 8% in experiment [2] (setting [3]) and 9% in experiment [2] (setting [4]). Besides, the “Mean % Inhibition” value came to 3% in experiment [1] and 8% in experiment [2].
Consider `CCCCC[CH2][Hg][S]c1nc(N)nc2[nH]cnc12` [compound 268879], for which the “% Inhibition” value is 3% in experiment [1] (setting [3]), −2% in experiment [1] (setting [4]), 40% in experiment [2] (setting [3]) and 38% in experiment [2] (setting [4]). The “Mean % Inhibition” value in experiment [1] worked out at 1%; in experiment [2], 39%.
`CC(=N[N-]C(=S)SCc1ccccc1)c1ccccn1.[Cl][Cu+]` [compound 295642]: the “% Inhibition” value turned out to be 2% in experiment [1] (setting [3]), 9% in experiment [1] (setting [4]), 19% in experiment [2] (setting [3]) and 17% in experiment [2] (setting [4]). The “Mean % Inhibition” value in experiment [1] was determined as 6%; in experiment [2], 18%.
Take `CSC(=[SH+])[N-]N=Cc1cccc(C)n1.CSC(=[SH+])[N-]N=Cc1cccc(C)n1.[Cu]` [compound 310551]: the “% Inhibition” value in experiment [1] (setting [3]) is recorded as −5%; in experiment [1] (setting [4]) it was −1%; in experiment [2] (setting [3]) it was 21%; in experiment [2] (setting [4]), 18%. Moreover, the “Mean % Inhibition” value in experiment [1] is recorded as −3%; in experiment [2], 20%.
On to `CSC(=[SH+])[N-]N=C(c1ccccn1)c1ccccn1.[Cu][Br]` [compound 321206], for which the “% Inhibition” value was determined as 5% in experiment [1] (setting [3]), 5% in experiment [1] (setting [4]), 52% in experiment [2] (setting [3]) and 45% in experiment [2] (setting [4]). Besides, the “Mean % Inhibition” value in experiment [1] was 5%; in experiment [2], 49%.
As for `Nc1cc[c]([Hg])cc1.Nc1nc2c(ncn2C2OC(CO)C(O)C2O)c(=[SH+])[nH]1` (stereo not drawn) [compound 321237], the “% Inhibition” value in experiment [1] (setting [3]) amounted to 7%; in experiment [1] (setting [4]), 5%; in experiment [2] (setting [3]) it was 105%; in experiment [2] (setting [4]) it was 104%. Moreover, the “Mean % Inhibition” value in experiment [1] turned out to be 6%; in experiment [2], 105%.
In the case of `O=C1c2ccccc2NC(c2cc(Cl)cc(Cl)c2O)N1CCc1ccccn1` (stereo not drawn) [compound 328087], the “% Inhibition” value in experiment [1] (setting [3]) is 3%; in experiment [1] (setting [4]), 5%; in experiment [2] (setting [3]), 9%; in experiment [2] (setting [4]), 9%. Further, the “Mean % Inhibition” value in experiment [1] worked out at 4%; in experiment [2] it was 9%.
For `CC(C)(O)/C=C/C(=O)C(C)(O)C1C(O)CC2(C)C3CC=C4C(C=C(O)C(=O)C4(C)C)C3(C)C(=O)CC12C` (stereo not drawn) [compound 521777], the “% Inhibition” value in experiment [1] (setting [3]) was 1%; in experiment [1] (setting [4]) it was 0%; in experiment [2] (setting [3]) it was 10%; in experiment [2] (setting [4]), 8%. The “Mean % Inhibition” value in experiment [1] is 1%; in experiment [2] it was 9%.

These data come from patent US9504729B2, “Antiangiogenic small molecules and methods of use” (The United States of America, as represented by the …, priority 2009, dated 2016).
